Here are results for six molecules from PMC3433420 (PLoS ONE, 2012).

Residues, ends and D or L forms follow the SMILES beside them.

The target in one assay is T1, TNS1 SH2 domain (Homo sapiens, UniProt Q9HBL0).
T1 sequence (Q9HBL0 1567-1676 limits assumed): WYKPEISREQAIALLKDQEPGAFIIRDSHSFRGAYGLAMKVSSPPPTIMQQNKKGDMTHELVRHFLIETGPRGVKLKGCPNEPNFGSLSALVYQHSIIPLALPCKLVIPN
The assay is described as follows: FP saturation binding assay. The note with it: Tensin family SH2 domains.

The next assay addresses T2, TNS3 SH2 domain (Homo sapiens, UniProt Q68CZ2).
T2 sequence (Q68CZ2 1172-1282 limits assumed): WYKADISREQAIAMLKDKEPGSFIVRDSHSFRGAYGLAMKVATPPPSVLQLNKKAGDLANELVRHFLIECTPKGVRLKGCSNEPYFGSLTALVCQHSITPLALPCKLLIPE
As to the kind of experiment: FP saturation binding assay. The note with it: FP saturation assay; Tensin family SH2 domains.

Another assay relates to TENC1 SH2 domain. As to the kind of experiment: FP saturation binding assay. The note with it: Tensin family SH2 domains.
The target of assay [1] is T3, PLCG1-C SH2 domain (Homo sapiens, UniProt P19174).
T3 construct: The 6X His-tagged SH2 domain proteins used in the assay, PLCG1-C, SHC4, VAV2; thioredoxin; made in house; host or cells: E. coli BL21(DE3)pLysS
T3 sequence (P19174 668-756 limits assumed): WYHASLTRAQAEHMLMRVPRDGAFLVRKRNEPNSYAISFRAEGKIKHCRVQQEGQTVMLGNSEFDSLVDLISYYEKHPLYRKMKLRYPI
As to the kind of experiment: Surface plasmon resonance (Biacore 3000). The note with it: SPR, NA = no interaction detected. Format: binding. How it is done:
All SPR experiments were performed using Biacore 3000 (GE HealthCare, Piscataway, NJ) instrumentation. 6X His-tagged SH2 domain proteins were immobilized on a nitriloacetic acid (NTA) sensor chip (GE HealthCare, Piscataway, NJ) charged with Ni^2+ ions. Dye-free ErbB family peptides were applied to the sensor chip in a single flow cell in solution phase (while the other flow cell was used as a reference control) and binding events were measured under equilibrium conditions. FP false positive [drawing 7] (FPR), false discovery [drawing 8] (FDR), and false negative [drawing 9] (FNR) rates were calculated by defining true positives (TP) as interactions detected by both FP and SPR, true negatives (TN) as interactions detected by neither FP nor SPR; false positives as interactions identified by FP but not validated by SPR; and false negatives (FN) as interactions missed by FP but detected by SPR. Additional details for all methods are provided in the Supplementary Methods.
A randomly selected set of 12 recombinant SH2 domain proteins and unlabeled (rhodamine dye free) peptides (9 ErbB, 2 GAB1, 2 KIT, 2 MET) were generated for the surface plasmon resonance (SPR) validation study. The 6X His-tagged SH2 domain proteins used in the assay, PLCG1-C, SHC4, VAV2, TNS3, PIK3R3-C, SYK-C, PIK3R1-N, SUPT6H, CRKL, TEC, SHB, and SHC3 were produced and purified as previously described (see “SH2 and PTB domain proteins” section and Jones et al., 2006). Fresh protein stocks were generated so as to avoid bias incurred from proteins previously used in the FP assays. 13-mer peptides corresponding to ErbB1 pY801, ErbB1 pY900, ErbB1 pY978, ErbB1 pY1069, ErbB2 pY685, ErbB pY803, ErbB3 pY912, ErbB4 pY833, ErbB4 pY906, GAB1 pY183, GAB1 pY472, KIT pY570, KIT pY936, MET pY1093 and MET pY1313, were synthesized successfully for the assay using previously described approaches (see “FP competitor peptide synthesis” section). For SPR detection via the Biacore 3000 (GE HealthCare, Piscataway, NJ), His-tagged SH2 domains were immobilized on Biacore NTA sensor chips (GE HealthCare, Piscataway, NJ) pre-charged with Ni^2+ ions in one flow cell while the second served as a negative control reference cell. Peptides were introduced in solution phase to both cells and relative response units (RUs) were recorded from output sensograms. Nine concentrations of peptide and a buffer control, in duplicate, were used to determine KDs using the equilibrium method (best-fit simultaneous modeling for peptide association and disassociation curves).
(In general: SPR reads the build-up and loss of mass on a sensor chip optically.)

Assay [2] has as its target T3, PLCG1-C SH2 domain. The assay is described as follows: biochemical. Format: binding. Conditions: FP, PLCG1-C; mean; NA = no interaction detected.
The target of another assay is SH2 and PTB domains. The note with it: protein SYK-N; ref Kaushansky et al. Mol Biosys 2008; cited from earlier work. From the text: Supplement pone.0044471.s022.xlsx, sheet "Most recent PM interactions" | column: Kd || Supplement pone.0044471.s022.xlsx, sheet "All original PM interactions" | column: Kd
The target of a further assay is PIK3R2-N SH2 domain (Homo sapiens, UniProt O00459). The assay is described as follows: FP saturation binding assay.
Sequence of PIK3R2-N SH2 domain (O00459 330-425 limits assumed): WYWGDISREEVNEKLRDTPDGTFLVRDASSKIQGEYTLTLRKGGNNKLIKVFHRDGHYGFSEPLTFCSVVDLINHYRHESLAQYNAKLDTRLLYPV
The next assay deals with T4, PIK3R1-C SH2 domain (Homo sapiens, UniProt P27986).
T4 construct: 6X His; thioredoxin; made in house; host or cells: E. coli BL21(DE3)pLysS
T4 sequence (P27986 624-718 limits assumed): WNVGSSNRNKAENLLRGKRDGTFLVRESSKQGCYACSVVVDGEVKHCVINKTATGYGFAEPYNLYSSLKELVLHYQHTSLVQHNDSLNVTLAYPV
As to the kind of experiment: FP saturation binding assay. The note with it: protein PIK3R1-C, high-confidence ErbB interactions, mean of replicate hits. In outline: (§1)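 Rhodamine-labeled phosphopeptides (10 nM final) titrated with SH2 domain protein (0.002–10 µM, 12 points) in 20 mM HEPES, 100 mM KCl, 0.1% Tween-20, 5 mM DTT, pH 7.8; 20 min, room temperature, dark. FP read at 530/555 nm; KD fitted by nonlinear regression after thioredoxin background correction and outlier removal.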

For assay [3], the target named is T5, PIK3R1-NC tandem SH2 domains (Homo sapiens, UniProt P27986).
T5 construct: the tandem protein was included in our analysis with all internal amino acids linking the domains; 6X His; thioredoxin; made in house; host or cells: E. coli BL21(DE3)pLysS
T5 sequence (P27986 333-718 limits assumed): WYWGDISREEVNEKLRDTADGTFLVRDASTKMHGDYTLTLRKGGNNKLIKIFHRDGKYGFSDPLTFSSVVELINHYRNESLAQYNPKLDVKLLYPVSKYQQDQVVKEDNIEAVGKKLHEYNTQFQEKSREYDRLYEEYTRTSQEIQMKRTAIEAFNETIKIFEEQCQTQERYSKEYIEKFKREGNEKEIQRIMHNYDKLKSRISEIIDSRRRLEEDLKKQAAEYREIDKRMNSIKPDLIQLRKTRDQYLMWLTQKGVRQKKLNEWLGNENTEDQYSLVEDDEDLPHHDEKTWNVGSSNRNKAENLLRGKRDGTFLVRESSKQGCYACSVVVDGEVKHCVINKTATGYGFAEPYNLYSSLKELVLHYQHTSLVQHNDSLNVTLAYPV
The assay is described as follows: FP saturation binding assay. Conditions: protein PIK3R1-NC; FP, high-confidence ErbB interactions; mean of replicate hits. In outline:
as §1

In assay [4] the target is T6, PIK3R3-NC tandem SH2 domains (Homo sapiens, UniProt Q92569).
T6 construct: the tandem protein was included in our analysis with all internal amino acids linking the domains; 6X His; thioredoxin; made in house; host or cells: E. coli BL21(DE3)pLysS
As to the kind of experiment: FP saturation binding assay. Conditions: protein PIK3R3-NC; FP, high-confidence ErbB interactions; mean of replicate hits. In outline: as §1

The next assay deals with T7, PIK3R1-N SH2 domain (Homo sapiens, UniProt P27986).
T7 construct: thioredoxin; made in house; host or cells: E. coli BL21(DE3)pLysS
T7 sequence (P27986 333-428 limits assumed): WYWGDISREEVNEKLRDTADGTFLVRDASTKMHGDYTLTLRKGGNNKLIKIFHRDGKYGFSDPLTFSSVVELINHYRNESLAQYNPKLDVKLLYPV
As to the kind of experiment: biochemical. Format: binding. The note with it: protein PIK3R1-N; FP, high-confidence ErbB interactions; mean of replicate hits.

The test system of assay [5] is 93 human SH2 domains and 2 phosphotyrosine binding (PTB) domains. As to the kind of experiment: FP saturation binding assay, whole domain panel (protein named per line or not at all). How it is done: (See Figure 1A) Rhodamine-labeled peptides were dissolved in assay buffer (20 mM HEPES, 100 mM KCl, 0.1% Tween-20, 5 mM DTT, pH 7.8), diluted to a concentration of 20 nM, and plated into black 384-well plates (Corning, Corning, NY) at 5 µL/well using a Perkin Elmer EP3 pipetting workstation (V&P Scientific, Inc., San Diego, CA). SH2, PTB, and thioredoxin control proteins were plated into the first column of 2 mL 96-well plates (Corning) at a concentration of 20 µM and serially diluted 1∶2 into freezing buffer (300 mM NaCl, 50 mM Na2PO4, pH 8, 20% glycerol v/v) eleven times using a Tecan Freedom EVO 100 workstation (Tecan, Männedorf, Switzerland). For the interaction assay, 5 µL of each of the twelve protein concentrations was added to the peptide-containing 384-well plates via the EP3 resulting in a protein dilution range of 0.002–10 µM and a final volume of 10 µL; peptide concentration was fixed at 10 nM. Peptide/protein samples were incubated for 20 minutes at room temperature in the dark and fluorescence polarization (FP) was measured in an Analyst GT multimode reader (Molecular Devices, Sunnyvale, CA) with excitation and emission wavelengths of 530 nm and 555 nm, respectively. Experimental values were output as millipolarization (mP) units and imported into MATLAB (The MathWorks, Inc., Natick, MA) in which equation (1) was used to determine dissociation constants (KDs) for each protein/peptide pairing by least squares nonlinear regression. [drawing 1] (1)
To scale up the number of interaction measurements while minimizing variation introduced by human intervention, we utilized an automated robotic platform (Figure 1A; see experimental procedures and Supplementary Methods) to transfer, incubate, and measure the fluorescence polarization (FP) induced from interactions of a titration series of SH2 domains with synthetic rhodamine-labeled ErbB phosphopeptides. Experimental values were output as millipolarization (mP) units and equation (1) was used to fit apparent midpoint dissociation constants (KDs) for each protein/peptide pair using non-linear regression (see experimental procedures).
For this interaction analysis, we synthesized and queried the interaction of phosphopeptides corresponding to 89 of 92 ErbB family intracellular tyrosines with 93 SH2 domains. Because nine peptide sequences share 100% identity between the receptors in the 4 to 7 amino acids C-terminal to the phosphorylated tyrosine, our peptide set consisted of 81 phosphopeptides corresponding to the 89 unique tyrosine containing sequences (Table S2). This peptide set represents a 50% increase over the three PM studies performed to date. We were therefore able to obtain a more systematic and unbiased view of the relative SH2 domain recruitment potential of each receptor. Although most ErbB receptor auto-phosphorylation sites have been detected frequently by mass spectrometry because of their high relative modification stoichiometry, non-auto-phosphorylation sites have been reported less frequently in the literature (Table S3). We reasoned that many physiologically relevant and uncharacterized ErbB tyrosines of low phosphorylation stoichiometry may exist and that our comprehensive interaction analysis might implicate their importance in mediating physiological interactions. We tested the majority of interactions (7099/8160 (87.0%); Figure S3) three or more times and reported standard error for all interactions that were detected in at least three FP runs (Table S4). […] Analysis of this polarization data may be useful for inferring how SH2 proteins bind to different peptide sequences. Larger proteins and proteins binding closer to the N-terminal rhodamine tag of a given peptide would be expected to induce higher maximal polarization (the calculated maximal polarization value at infinite protein concentration) than proteins binding farther from the tag. In addition to phosphopeptides, we queried a representative set of 27 non-phosphopeptides against the entire domain set. […]

As usually defined, the Kd is the equilibrium constant for the complex coming apart.

As to LDEApYVMASVDNd [ErbB1 pY764], the “affinity of recruitment of TNS1” value at TNS1 SH2 domain is given as “relatively high affinity”. For the same molecule, the “affinity of recruitment of TNS3” value on TNS3 SH2 domain is recorded as “relatively high affinity”. Moreover, the “affinity of recruitment of TENC1” value with TENC1 SH2 domain was “relatively high affinity”.
Take `CSCC[C@H](NC(=O)CNC(=O)[C@@H](N)CCCCN)C(=O)N[C@@H](CCSC)C(=O)N[C@@H](Cc1ccc(OP(=O)(O)O)cc1)C(=O)N[C@@H](CC(C)C)C(=O)N[C@@H](CCC(=O)O)C(=O)N[C@@H](CCC(=O)O)C(=O)N[C@@H](CCCNC(=N)N)C(=O)N[C@@H](CCCNC(=N)N)C(=O)N[C@@H](CC(C)C)C(=O)N[C@H](C(=O)N[C@@H](CC(=O)O)C(=O)O)C(C)C` [ErbB4 833] (HELM PEPTIDE1{K.G.M.M.[O=C([C@H](Cc1ccc(OP(=O)(O)O)cc1)N[*:1])[*:2]].L.E.E.R.R.L.V.D}$$$$V2.0): the Kd at PLCG1-C SH2 domain [1] is 3460 nM; on PLCG1-C SH2 domain [2] it was 4730 nM.
Regarding CLLDpYVREHKDNd [ErbB1 pY801], the “affinity of recruitment of TNS1” value at TNS1 SH2 domain is “relatively high affinity”. For the same molecule, the Kd on SH2 and PTB domains was 560 nM. On TNS3 SH2 domain, the “affinity of recruitment of TNS3” value is reported as “relatively high affinity”. In addition, the “affinity of recruitment of TENC1” value in the assay with TENC1 SH2 domain is reported as “relatively high affinity”.
In the case of `CSCC[C@H](NC(=O)[C@@H]1CCCN1C(=O)[C@@H](NC(=O)[C@H](Cc1ccc(OP(=O)(O)O)cc1)NC(=O)[C@H](C)NC(=O)[C@@H]1CCCN1C(=O)[C@@H]1CCCN1C(=O)[C@@H]1CCCN1)[C@@H](C)O)C(=O)N[C@@H](CO)C(=O)NCC(=O)N[C@@H](CC(N)=O)C(=O)N[C@@H](CCC(N)=O)C(=O)N[C@@H](CC(=O)O)C(=O)O` [ErbB4 1056 13-mer] (HELM PEPTIDE1{P.P.P.A.[O=C([C@H](Cc1ccc(OP(=O)(O)O)cc1)N[*:1])[*:2]].T.P.M.S.G.N.Q.D}$$$$V2.0), the Kd at PIK3R2-N SH2 domain was 2960 nM; on PIK3R1-C SH2 domain it was 160 nM; in [3], 210 nM; in assay [4] it was 230 nM; at PIK3R1-N SH2 domain, 2570 nM.
`CC[C@H](C)[C@H](NC(=O)[C@@H](NC(=O)[C@H](CC(C)C)NC(=O)[C@H](Cc1ccc(OP(=O)(O)O)cc1)NC(=O)[C@H](CCCNC(=N)N)NC(=O)[C@H](CCC(N)=O)NC(=O)[C@@H]1CCCN1C(=O)[C@@H](N)CC(=O)O)C(C)C)C(=O)N[C@@H](CCC(N)=O)C(=O)NCC(=O)N[C@@H](CC(=O)O)C(=O)N[C@@H](CCC(=O)O)C(=O)N[C@@H](CC(=O)O)C(=O)O` [ErbB1 978] (HELM PEPTIDE1{D.P.Q.R.[O=C([C@H](Cc1ccc(OP(=O)(O)O)cc1)N[*:1])[*:2]].L.V.I.Q.G.D.E.D}$$$$V2.0): the equilibrium dissociation constant (Kd) on PLCG1-C SH2 domain [1] was 430 nM; at PLCG1-C SH2 domain [2], 1370 nM.
As for AKGMpYYLEEHGMd [ErbB3 pY823], the “affinity of recruitment of TNS1” value on TNS1 SH2 domain is recorded as “relatively high affinity”. The “affinity of recruitment of TNS3” value on TNS3 SH2 domain is on record as “relatively high affinity”. Besides, in assay [5] (KD <= 20 µM counted as interaction), the “interaction with the SH2/PTB domain panel” value was “reproducibly interacted at high affinity with many SH2 domains”. For the same molecule, the “SH2 domains found to interact” value in [5] (high-confidence interactions (Table S11, Figure S14)) is “interacted with Src kinase and tensin family SH2 domains”. The “affinity of recruitment of TENC1” value in the assay with TENC1 SH2 domain is “relatively high affinity”.
